Values joined by “and” are separate entries in the source; they are usually repeats but may differ in a detail not shown here. Identical values can stand only once. Marks after values point to notes of the source that are not given here.
How the values were obtained:
[1] = Metabolic stability in human microsomes; type: in vitro ADME; conditions: for Metabolic stability in human microsomes: 37 °C, 0.5 mg/mL protein, 1 μM compound, 1 mM NADPH; for Comment on microsome assay: Table S3
[2] = Compounds in pre-precipitated (inactivated) plasma; type: in vitro ADME, human; conditions: for % found in incubation plasma at time 0.2 min: peak area in incubation plasma versus pre-precipitated plasma; for degradation in inactivated plasma: plasma pretreated with acetonitrile
Procedure: Materials for experiments described in the supporting information (solubility) […]
Dimethylsulfoxide (DMSO) CHROMASOLV™ Plus, >99.7%
Acetonitrile (MeCN) LiChrosolv, hypergrade for LC-MS, Merck Chemicals
Formic acid (HCOOH) For LC-MS, Carlo-Erba
Water > 18MΩcm quality (Milli-Q, Millipore
Di-sodium-hydrogenphoshate dihydrate Merck
Sodium-dihydrogenphosphate monohydrate Merck
Autosampler Agilent 1260 Multisampler, G7167A
Gradient LC-pump Agilent 1260 Flexible Pump, G7104C
Analytical Flow 0.5 mL/min
Analytical column Luna® Omega 1.6 µm Polar C18 100Å, 50 x 2.1 mm
Injection volume 3.0 µL (15 µL for “high” injection of buffer sample) […]
Mobile phase A H2O/MeCN/Formic acid 95/5/0.1
Mobile phase B H2O/MeCN/Formic acid 5/95/0.1
Materials and analytical parameters for FT-ICR-MALDI-HRMS
The high-resolution mass spectrometry (HR-MS) experiments were performed using a MALDI-Fourier-transform ion cyclotron resonance (FTICR) (7T solariX XR-2ω, Bruker Daltonics) mass spectrometer equipped with a Smartbeam II 2 kHz laser. Briefly, a stock solution (1mg/ml) of the compound 5 was prepared and mixed 1:1 with a matrix solution containing DHB (40 mg/ml) in 50% ACN (0.02% TFA). 1 µl of the mixed solution was spotted onto MPTP MALDI target plate (Bruker Daltonics) and dried at room temperature. The instrument was tuned for optimal detection of small molecules (m/z 86–500) in positive polarity using the quadrature phase detection (QPD) (2ω) mode. The method was calibrated with red phosphorus over the mass range and DHB matrix ion [2M–2H2O+H]+ m/z 273.039364 was used as lock mass. The compound was identified with sub ppm mass accuracy and specific isotopic pattern of boron in its molecular structure.
Incubation samples. 10 mM stock solutions of test compounds in DMSO were used to prepare 100 μM solutions by dilution in EtOH/water 25/75 (v/v). 6 μL of the 100 μM solution was spiked into 594 μL pre-warmed plasma at 37 °C giving a final concentration of 1 μM. The incubation tube was then mixed on a vortex. A sample (60 μL) was taken and added to an Eppendorf tube containing 180 μL acetonitrile. The tube was thoroughly mixed with a vortex. The precipitated sample was then treated with centrifugation (10.000 g, 10 minutes, 18 °C), 150 μL of the supernatant was mixed with 450 μL water directly into a LC-vial (glass). This step was repeated for every time point. The first time point was approximately taken 15-20 seconds after spiking.
Other timepoints were 5,10, 30, 60, 120, 240 minutes. Pre-precipitated samples. 594 μL of pre-warmed plasma was precipitated with 1800 μL ACN. 6 μL of the 100 μM solution was spiked into the precipitated plasma. 1 mL was removed and added to an Eppendorf tube. After a centrifugation step (10.000 g, 10 minutes, 18 °C), 150 μL of the supernatant was mixed with 450 μL water directly into a LC-vial (glass).
Metabolic stability in human microsomes
The assay was run at 37°C with a microsomal protein concentration of 0.5 mg/mL and a compound concentration of 1 μM in a 0.1 M potassium phosphate buffer at pH 7.4. The compounds were added to the microsome suspension whereafter the enzymatic reaction was initiated by the addition of the co-factor NADPH, giving a final NADPH concentration of 1 mM (Table 9). Samples […]
Table S6 Time-dependent decline in concentration of five compounds for in vitro plasma stability in human plasma and […]
Plasma stability. The compounds were incubated separately at a concentration of 1 μM in +37°C pre-warmed pooled human plasma from commercial resources. The incubations were performed over a four-hour period with the first sample taken after addition of the compounds to plasma followed by a thorough mixing, with further sampling at 5, 10, and 30 minutes as well as 1, 2, and 4 hours. The samples were analyzed by LC-MS/MS using relative peak areas for the calculations of the time-dependent […]
Table S7 Comparison of peak area in incubation plasma after addition and mixing with pre-precipitated plasma. […]

[3] = Peak area in microsome suspension compared with compounds in solution; type: in vitro ADME, human; conditions: peak area 15 seconds after addition of NADPH versus same amount (125 nM) in H2O/EtOH
Procedure: were taken at three timepoints, and the degradation was compared to determine if it was dependent on NADPH. Compound 4k […]
without the addition of NADPH. […]
microsomes that need to be activated by a co -factor.
Table S5 Percent of peak area found in microsome suspension 15 seconds after the addition of NADPH in comparison with the same amount dissolved in H2O/EtOH
No. Area at 0.25 min. in Area in solution % found in microsomes/NADPH (125 nM) microsome
Comparison with compounds in solution. A comparison was made between the peak area of the compounds in solution with that obtained in the microsome suspension directly after the addition of NADPH (about 0.25 minutes) (Table S5). Before the addition of NADPH, the compounds are equilibrated in the microsome suspension for approximately five minutes. All compounds were prepared in solution by diluting a portion of the DMSO solutions with H2O/EtOH (75:25) to 125 nM (the final concentration of compounds for analysis in the microsome assay).
For the compounds where no results from the microsome assay could be reported due to low peak area (4d, 4e, 4f & 5), less than one percent of the expected peak area as compared with the area in solution was detected. […]
degrade rapidly before the addition of the co-factor after five minutes in incubation. For compounds 4g, 4h, 4i & 4j, which were […]
higher relative peak areas were found. […]
without NADPH was only found at 15% of the area seen in solution in the microsome suspension.

[4] = Stability in simulated stomach acid (0.10 M HCl); conditions: 0.10 M HCl (simulated stomach acid)
[5] = system: porcine liver esterase; experiment: Stability in FaSSIF supplemented with esterase; conditions: for % prodrug remaining, measured after 1 min: after 1 min at 20 IU/mL; for % prodrug remaining, no esterase 30 min: after 30 min with no esterase; for predicted half-life: at 270 IU/mL; for predicted abs.: calculated remaining prodrug available for GI absorption, predicted level after 5 min at 270 IU/mL (% remaining prodrug); for half-life at 0.292 mM: pig, FaSSIF supplemented with porcine liver esterase (20 IU/mL)
[6] = Solid solubility assay, phosphate buffer pH 7.4; type: physicochemical; conditions: phosphate buffer pH 7.4, dry substance
[7] = mice dosed with psilocybin or 4-AcO–DMT; cited from earlier work

With `CN(C)CCc1c[nH]c2cccc(OCc3ccccc3)c12` [Compound 3, 4-Benzyloxy-N,N-dimethyltryptamine] the “Metabolic stability in human microsomes” value [1] was 43 μL/min/mg protein and 44 μL/min/mg protein, the “% found in incubation plasma at time 0.2 min” value (shortened to “% found in incubation plasma”) [2] was 115% and the “degradation in inactivated plasma” value [2] was “fairly stable”. For the same molecule, the “% found in microsome suspension” value [3] was 88.5% and the half-life at 5 mM [4] was > 167 h.
With `CN(C)CCc1c[nH]c2cccc(OC(=O)C3CC3)c12.O=C(O)/C=C/C(=O)O` [Compound 4g] the “Metabolic stability in human microsomes” value [1] was >200^a μL/min/mg protein and >200 μL/min/mg protein, the “Comment on microsome assay” value [1] was “Rapid degradation” and the “% found in incubation plasma” value [2] was 90%. For the same molecule, the “degradation in inactivated plasma” value [2] was “fairly stable”, the “% found in microsome suspension” value [3] was 58% and the “% prodrug remaining, measured after 1 min” value [5] was 57%. The “% prodrug remaining, no esterase 30 min” value [5] was 100%, the predicted half-life [5] was 0.09 min and the predicted abs. [5] was 1.9 × 10^–15. The half-life at 0.292 mM [5] was 1.22 ± 0.04 min and the half-life at 5 mM [4] was > 167 h.
In the case of `CN(C)CCc1c[nH]c2cccc(OP(=O)(O)O)c12` [Compound 8, 4-phosphoryloxy-N,N-dimethyltryptamine, reference compound], the “Metabolic stability in human microsomes” value [1] is reported as <10/<10^b μL/min/mg protein and <10 μL/min/mg protein, the solubility at 24 h [6] is reported as > 1000 µM and the “% found in incubation plasma” value [2] is reported as 67%. The “degradation in inactivated plasma” value [2] was “fairly stable”, the “% found in microsome suspension” value [3] was 81.5% and the half-life at 5 mM [4] was > 167 h.
With `CCOC(=O)Oc1cccc2[nH]cc(CCN(C)C)c12.O=C(O)/C=C/C(=O)O` [Compound 4i] the “Metabolic stability in human microsomes” value [1] was >200^a μL/min/mg protein and >200 μL/min/mg protein, the “Comment on microsome assay” value [1] was “Rapid degradation” and the “% found in incubation plasma” value [2] was 17%. The “degradation in inactivated plasma” value [2] was “heavily degraded”, the “% found in microsome suspension” value [3] was 7.1% and the “% prodrug remaining, measured after 1 min” value [5] was 28%. For the same molecule, the “% prodrug remaining, no esterase 30 min” value [5] was 100%, the predicted half-life [5] was 0.04 min and the predicted abs. [5] was 2.6 × 10^–35. For the same molecule, the half-life at 0.292 mM [5] was 0.56 ± 0.12 min and the half-life at 5 mM [4] was > 167 h.
With `CC(=O)Oc1cccc2[nH]cc(CCN(C)C)c12.O=C(O)/C=C/C(=O)O` [Compound 4a, 4-acetoxy-N,N-dimethyltryptamine] the “Metabolic stability in human microsomes” value [1] was >200^a μL/min/mg protein and >200 μL/min/mg protein, the “Comment on microsome assay” value [1] was “Rapid degradation” and the “% found in incubation plasma” value [2] was 9.8%. The “degradation in inactivated plasma” value [2] was “heavily degraded”, the “% found in microsome suspension” value [3] was 0.0% and the “psilocin exposure compared with psilocybin” value [7] was “nonsignificant difference in psilocin exposure”. For the same molecule, the “% prodrug remaining, measured after 1 min” value [5] was 47%, the predicted half-life [5] was 0.07 min and the predicted abs. [5] was 6.2 × 10^–21. For the same molecule, the half-life at 0.292 mM [5] was 0.91 ± 0.1 min and the half-life at 5 mM [4] was > 167 h.

Source: article PMC11997985, “Synthesis and In Vitro Profiling of Psilocin Derivatives: Improved Stability and Synthetic Properties” (Journal of Medicinal Chemistry, 2025)
